Laboratory results as given in patent publication US20250050671A1, “THERMOSENSITIVE RECORDING LAYER FORMING LIQUID, THERMOSENSITIVE RECORDING MEDIUM AND PRODUCTION METHOD THEREOF, AND IMAGE RECORDING METHOD” (Ricoh Company, Ltd., priority 2021, published 2025).

Assay: Measurement of solubility of electron-accepting compound to solvent (saturated solution, gravimetric)
Format: physicochemical
Conditions: for Electron-accepting compound Solubility to ethanol: Table 2, repeated per forming liquid, 20° C.; for Solubility, alcohol solvent ethanol / Solubility, ester solvent ethyl acetate / Solubility, alcohol solvent isopropyl alcohol / Solubility, alcohol solvent methanol / Solubility, ketone solvent methyl ethyl ketone / Solubility, aromatic solvent toluene: saturated solution at 20° C.±3° C.
Description: <Measurement of Solubility of Electron-Accepting Compound to Solvent> […]
(2) While stirring a stirrer or a stirring rod, an electron-accepting compound was added gradually until insoluble matter of the electron-accepting compound appears at the bottom of the beaker.
(3) The resultant was left to stand for 1 hour or longer with a lid placed on top of the beaker.
(4) If the insoluble matter was completely disappeared by stirring with the stirring rod, the processes (2) to (4) were repeated.
(5) If the insoluble matter was remained after standing for 1 hour or longer, it was determined that preparation of a saturated solution was completed.
A weight (A) of an aluminium cup was weighed with the minimum unit of 1 mg or less.
The part of the transparent supernatant liquid of the saturated solution prepared in 1 was collected by a pipette, and the collected liquid was placed in the aluminium cup (about 0.8 g to about 1.3 g in weight) and a weight of the liquid was weighed with the minimum unit of 1 mg or less.
The aluminium cup in which the liquid was collected was placed in a dryer (120° C.±10° C.). Alternatively, the aluminium cup in which the liquid was collected is placed on a hot plate (120° C.±10° C.) in an area where a local ventilation was installed.
The solvent was evaporated from the liquid for 25 minutes or longer (a lid was placed to prevent inclusion of dusts when a hot plate was used).
The aluminium cup was removed from the drier or hot plate, and was left to stand for 1 minute or longer indoor, followed by weighing the total amount (C) with a unit of 1 mg or less.

SMILES	Electron-accepting compound Solubility to ethanol [% by mass]	Solubility, alcohol solvent ethanol [% by mass]	Solubility, ester solvent ethyl acetate [% by mass]	Solubility, alcohol solvent isopropyl alcohol [% by mass]	Solubility, alcohol solvent methanol [% by mass]	Solubility, ketone solvent methyl ethyl ketone [% by mass]	Solubility, aromatic solvent toluene [% by mass]
Cc1ccc(S(=O)(=O)Oc2cccc(NC(=O)Nc3cccc(OS(=O)(=O)c4ccc(C)cc4)c3)c2)cc1 [Electron-Accepting Compound 5, N,N′-di-[3-(p-toluenesulfonyloxy)phenyl]urea]	0.1	0.1	1.3	0.1	0.1	11.3	0.1
Cc1ccc(S(=O)(=O)NC(=O)Nc2cccc(OS(=O)(=O)c3ccc(C)cc3)c2)cc1 [Electron-Accepting Compound 4, N-p-toluenesulfonyl-N′-3-(p-toluenesulfonyloxyphenyl)urea]	0.4	0.4	2.1	0.4	0.8	12.7	0.1
Cc1ccc(S(=O)(=O)Oc2cccc(NC(=O)Nc3ccccc3)c2)cc1 [Electron-Accepting Compound 3]	0.6	0.6	1.6	0.8	0.6	8.1	0.1
Oc1ccc(C2(c3ccc(O)cc3)c3ccccc3-c3ccccc32)cc1 [Electron-Accepting Compound 1, 9,9-Bis(4-hydroxyphenyl)fluorene]	4.7	4.7	9.0	4.5	24.8	30.2	0.7
O=S(=O)(c1ccc(O)cc1)c1ccc(O)cc1 [Electron-Accepting Compound 6, 4,4′-sulfonylbisphenol, reference compound]	34.1	34.1	9.7	34.1	33.7	36.5	0.1
